What is called Km is the concentration of substrate that gives half-maximal velocity. What is called Vmax is the rate approached at saturating substrate. In general, Ki refers to the equilibrium dissociation constant of an inhibitor or competing ligand from its target. Read a low Ki as tighter binding.

Data set [1] addresses T1, B. subtilis NaMN AT (yqeJ) (Bacillus subtilis, UniProt P54455).
T1 sequence (P54455 with tags, fused parts or gaps): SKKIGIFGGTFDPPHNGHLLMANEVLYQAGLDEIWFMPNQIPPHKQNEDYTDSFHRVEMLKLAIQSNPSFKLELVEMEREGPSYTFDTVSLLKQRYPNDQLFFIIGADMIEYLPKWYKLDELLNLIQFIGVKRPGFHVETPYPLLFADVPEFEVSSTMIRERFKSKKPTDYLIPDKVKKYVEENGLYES
In words: Continuous coupled assay of the forward reaction (EnzChek pyrophosphate / purine nucleoside phosphorylase). The format is biochemical. On the set-up: made in house; host or cells: E. coli BL21(DE3), vector pML208 (modified pET16b). The text has this:
Continuous assay. A continuous assay to monitor the reaction in the forward direction was based upon the EnzChek pyrophosphate assay from Molecular Probes (Eugene Oreg.) In this assay, inorganic pyrophosphate produced in the forward reaction of yqeJ is cleaved by inorganic pyrophosphatase to phosphate, which is used by the second coupling enzyme, purine nucleoside phosphorylase (PNP), to convert the chromogenic substrate 2-amino-6-mercapto-7-methylpurine ribonucleoside (MESG) to ribose-1-phosphate and 2-amino-6-mercapto-7methylpurine (E360=11,000 M^−1cm^−1). The reaction conditions were 20 mM Hepes pH 7.5, 10 mM MgCl2, 0.2 mM MESG, 1 U PNP, 0.01 U inorganic pyrophosphatase, and 0.03 μg/mL yqeJ. The reaction volume was 125 μL and was carried out in a 96 well plate at room temperature using spectamax384 plus plate reader recording continuously at 360 nm (Molecular Devices, Sunnyvale Calif.). For the KM determinations, NaMN was varied from 25 to 500 μM with ATP held at 2 mM and ATP was varied from 50 to 1000 μM with NaMN held constant at 1 mM. All kinetic constants were determined from non-linear fits of the experimental data using the enzyme kinetic module of Sigmaplot 7.0 (SPSS, Inc. San Rafael Calif.). The reaction conditions were the same for the KM determinations for NMN except the MgCl2 concentration was increased to 50 mM and the yqeJ concentration was increased to 75 μg/mL due to the lower activity against this substrate. […] The data was fit to a model of substrate inhibition using the equation: v=Vmax/(1+KM/S+S/Ki). […] NMN was varied from 0.5 to 10 mM with ATP held constant at 0.6 mM. The kinetic constants of yqeJ using NMN and ATP substrates also was determined with a second coupled assay system, one coupling NAD production to its reduction by alcohol dehyrogenase. This assay was described by Balducci et al (Balducci et al, 1995a) and has been used to characterize other NMN ATase. Using this assay, very similar values of KM and Vmax for NMN were obtained as was determined with the PNP coupled assay described above. The alcohol dehyrogenase coupled assay was not suitable to assays NaMN as a substrate, presumably because NaAD is not a good substrate for alcohol dehydrogenase.

In another data set the target is T2, yqeJ NaMN AT (Bacillus subtilis, UniProt P54455).
T2 construct: made in house; host or cells: E. coli BL21(DE3), vector pML208 (modified pET16b)
In words: Discontinuous HPLC adenylyl transferase assay. The following applies: 30 minutes, 37° C. The format is biochemical. Here is the method: FIGS. 3A, 3B, 3C and 3D provides the results of HPLC analysis of yqeJ NaMN AT adenylyl transferase activity. 0.36 mg/ml yqeJ NaMN AT was incubated with 1 mM ATP and 1 mM NaMN (3A) or 1 mM NMN (3B) for 30 minutes.
Discontinuous HPLC assay. The discontinuous HPLC assay is based upon the assays published by Mehl et al. (12) and Balducci et al. (18). Reaction conditions were 20 mM Hepes, pH 7.4, 10 mM MgCl2, and 0.36 or 0.18 mg/ml yqeJ protein incubated at 37° C. For the forward reaction, the incubations contained 1 mM ATP and 1 mM NaMN or NMN. […] The reactants and products were separated by chromatography on a 3.9×150 mm C18 column (Novapack 5 μm, Waters Inc). Buffer A 100 mM potassium phosphate pH 7.5. Buffer B 100 mM potassium phosphate pH 7.5 in 20% MeOH. The elution conditions were: 0 to 3 min in 100% A, 3.0 to 3.1 min to 100% B, 3.1 to 7 min 100% B. The absorbance of reactants and products was detected at 254 nm.

In data set [2] the target is T1, B. subtilis NaMN AT (yqeJ). The data set is described as follows: Back reaction coupled enzyme assay (hexokinase / glucose-6-phosphate dehydrogenase). The text has this: The back reaction for yqeJ NaMN AT was monitored using the coupled enzyme assay of hexokinase and glucose-6-phosphate dehydrogenase (from yeast). […] The ATP is then used by hexokinase to phosphorylate glucose to give glucose-6-phosphate and ADP. Glucose-6-phosphate is oxidized to 6-phospho-glucono-δ-lactone by glucose-6-phosphate dehydrogenase and NADP is reduced to NADPH. The assay is followed by the absorbance of NADPH at 340 nm. Glucose-6-phosphate dehydrogenase from baker's yeast was used because this enzyme prefers NADP to NAD as a co-substrate. Assay conditions were: 20 mM HEPES pH 7.5, 50 mM MgCl2, 1 mM NaPPi, 10 mM KCl, 5 U hexokinase, 5 U glucose-6-phosphate dehydrogenase, 1 mM glucose, 0.5 mM NADP+.

Substrate in data set [3]: NC(=O)c1ccc[n+]([C@@H]2O[C@H](COP(=O)([O-])OP(=O)(O)OC[C@H]3O[C@@H](n4cnc5c(N)ncnc54)[C@H](O)[C@@H]3O)[C@@H](O)[C@H]2O)c1
The data set is described as follows: purified protein, by the assay type. The following applies: other: back reaction; at subsaturating concentrations of PPi (1 mM); pH 7.5.

Substrate in data set [4]: O=P(O)(O)OP(=O)(O)O
In words: purified protein, by the assay type. The following applies: other: back reaction; at saturating concentrations of NaAD (500 μM); pH 7.5.

Substrate in data set [5]: NC(=O)c1ccc[n+]([C@@H]2O[C@H](COP(=O)([O-])O)[C@@H](O)[C@H]2O)c1
The data set is described as follows: Continuous coupled assay of the forward reaction (EnzChek pyrophosphate / purine nucleoside phosphorylase). The format is biochemical, Bacillus subtilis. The following applies: other: forward reaction; mononucleotide substrate varied, ATP held constant (2 mM for NaMN, 0.6 mM for NMN); NMN fit to substrate inhibition equation; pH 7.5. The text has this:
Continuous assay. A continuous assay to monitor the reaction in the forward direction was based upon the EnzChek pyrophosphate assay from Molecular Probes (Eugene Oreg.) In this assay, inorganic pyrophosphate produced in the forward reaction of yqeJ is cleaved by inorganic pyrophosphatase to phosphate, which is used by the second coupling enzyme, purine nucleoside phosphorylase (PNP), to convert the chromogenic substrate 2-amino-6-mercapto-7-methylpurine ribonucleoside (MESG) to ribose-1-phosphate and 2-amino-6-mercapto-7methylpurine (E360=11,000 M^−1cm^−1). The reaction conditions were 20 mM Hepes pH 7.5, 10 mM MgCl2, 0.2 mM MESG, 1 U PNP, 0.01 U inorganic pyrophosphatase, and 0.03 μg/mL yqeJ. The reaction volume was 125 μL and was carried out in a 96 well plate at room temperature using spectamax384 plus plate reader recording continuously at 360 nm (Molecular Devices, Sunnyvale Calif.). […] All kinetic constants were determined from non-linear fits of the experimental data using the enzyme kinetic module of Sigmaplot 7.0 (SPSS, Inc. San Rafael Calif.). […] The kinetic constants of yqeJ using NMN and ATP substrates also was determined with a second coupled assay system, one coupling NAD production to its reduction by alcohol dehyrogenase. […] Using this assay, very similar values of KM and Vmax for NMN were obtained as was determined with the PNP coupled assay described above. […]

The mark [6] stands for this setting: forward reaction, at saturating concentrations of NaMN.
The mark [7] stands for this setting: back reaction, at subsaturating concentrations of PPi (1 mM).
Setting [8] is: forward reaction: 1 mM ATP and 1 mM substrate, 0.36 mg/ml yqeJ.

Regarding `Nc1ncnc2c1ncn2[C@@H]1O[C@H](COP(=O)(O)OP(=O)(O)OP(=O)(O)O)[C@@H](O)[C@H]1O` [ATP], in data set [1] (setting [6]), the Michaelis-Menten constant (Km) came to 135 µM and the Vmax was 10.1 ± 0.4 µmol/min/mg.

As for `Nc1ncnc2c1ncn2[C@@H]1O[C@H](COP(=O)(O)OP(=O)(O)OC[C@H]2O[C@@H]([n+]3cccc(C(=O)O)c3)[C@H](O)[C@@H]2O)[C@@H](O)[C@H]1O` [NAAD, nicotinic acid adenine dinucleotide], the “conversion of substrate by yqeJ, detected by HPLC” value (from here on “conversion of substrate by yqeJ”) on yqeJ NaMN AT (reverse reaction: 1 mM sodium pyrophosphate and 0.5 mM substrate, 0.18 mg/ml yqeJ) was “converted to NaMN and ATP”. Moreover, in data set [2] (setting [7]), the Km amounted to 6.8 µM and the Vmax is 2.8 ± 0.2 µmol/min/mg. Also, the “preference (Vmax/KM ratio) for nicotinic acid over nicotinamide containing substrate” value in data set [2] (reverse reaction, NaAD over NAD) is given as 2,000 to 1.

For the molecule `NC(=O)c1ccc[n+]([C@@H]2O[C@H](COP(=O)([O-])O)[C@@H](O)[C@H]2O)c1` [NMN, Nicotinamide Mononucleotide], on yqeJ NaMN AT (setting [8]), the “conversion of substrate by yqeJ” value is “a new peak that eluted with NAD”. The molecule further came in with a Ki in data set [1] of 17 mM.

For `O=C(O)c1ccc[n+]([C@@H]2O[C@H](COP(=O)(O)O)[C@@H](O)[C@H]2O)c1` [NaMN, nicotinic acid mononucleotide], the “conversion of substrate by yqeJ” value on yqeJ NaMN AT (setting [8]) is reported as “formation of a new peak as detected by HPLC that eluted with the NaAD standard”. The “preference (Vmax/KM ratio) for nicotinic acid over nicotinamide containing substrate” value in data set [1] (forward reaction, NaMN over NMN) was 12,900 to 1. For the same molecule, in data set [1] (forward reaction, mononucleotide substrate varied, ATP held constant), the Vmax was 11.1 ± 0.7 µmol/min/mg. Further, the Km in data set [1] (forward reaction, mononucleotide substrate varied, ATP held constant (2 mM for NaMN, 0.6 mM for NMN), NMN fit to substrate inhibition equation) was 43 µM.

B1: B. subtilis NaMN AT (yqeJ) (Bacillus subtilis subsp. subtilis str. 168) (protein)
chain: T1 sequence (P54455 with tags, fused parts or gaps)
notes: made in house; host or cells: E. coli BL21(DE3), vector pML208 (modified pET16b)
For B1, the results for the Km in data set [3], in data set [4] and in data set [5] were 1700 ± 200 µM, 4200 ± 600 µM and 2300 ± 200 µM, respectively. Further, the Vmax in data set [3] was 0.34 µmol/min/mg; in data set [5], 0.054 µmol/min/mg.
